Laboratory results as given in patent US20040039022A1, “NMDA receptor agonist pharmaceutical compositions” (Pfizer Inc., priority 2000, published 2004).

Legend:
Type in all cases: physicochemical
[1] = Maximum solubility of the Compound; details: at 5° C.
Protocol: A preferred presentation of the composition aspects of the invention comprises the Compound at a concentration of 10 mgA/mL. This concentration is near the maximum solubility of the Compound (about 12 mgA/mL at 5° C.). The preferred solution of the composition is 10 mM lactate buffer. However, those skilled in the art will appreciate that buffer solutions of other anions may be used, including, but not limited to, buffer solutions of the anions acetate, citrate, tartrate and formate.

[2] = pH of buffered 10 mgA/ml formulations of the Compound at 70° C.
From the text: Table 2 exemplifies the use of various buffers to stabilize the pH of formulations containing 10 mgA/ml of the Compound. [table]

[3] = pH shift of aqueous formulations (water only; terminal sterilization of lactate buffered formulation)
From the text: Aqueous solutions of the Compound are susceptible to pH shift. […] When the Compound is formulated with only water, the pH of the formulation increases above 5. This pH shift results in conditions favorable to the oxidative degradation reaction, thus accelerating the degradation of the aqueous formulation. The increase in pH also decreases the solubility of the compound, thereby increasing the possibility of precipitation out of solution. Vials are preferably sterilized by terminal sterilization methods employing an autoclave. Preferably, sterilization is for 8 minutes at 121° C. Sterilization may cause a slight shift of pH. In the lactate buffered formulation, pH shifted slightly down. In order to achieve a mid-point in the preferred pH range, the initial pH is preferably set to 4.5. The terminal sterilization cycle reduces the pH to about 4.2. The pH of the initial formulation is set at pH 4.5 to accommodate the slight pH down-shifting upon terminal sterilization. […] Sodium hydroxide and hydrochloric acid are used as needed to adjust the solution to the desired pH.

## C[C@@H]([C@@H](O)c1ccc(O)cc1)N1CCC(O)(c2ccccc2)CC1 [Compound, (1S,2S)-1-(4-Hydroxyphenyl)-2-(4-hydroxy4-phenylpiperidin-1-yl)-1-propanol]
[1]
  maximum solubility: about 12 mgA/mL
[2]; 3 mM lactate, 2 days
  pH at 70° C.: 4.21
[2]; 3 mM lactate, 7 days
  pH at 70° C.: 4.20
[2]; 3 mM lactate, 21 days
  pH at 70° C.: 4.14
[2]; 3 mM lactate, Initial (post-TS)
  pH at 70° C.: 4.24
[2]; 10 mM acetate, 4 days
  pH at 70° C.: 4.14
[2]; 10 mM acetate, 7 days
  pH at 70° C.: 4.14
[2]; 10 mM acetate, 21 days
  pH at 70° C.: 4.17
[2]; 10 mM acetate, Initial (post-TS)
  pH at 70° C.: 4.16
[2]; 10 mM benzoate, 4 days
  pH at 70° C.: 4.16
[2]; 10 mM benzoate, 7 days
  pH at 70° C.: 4.20
[2]; 10 mM benzoate, Initial (post-TS)
  pH at 70° C.: 4.21
[2]; 10 mM citrate, 2 days
  pH at 70° C.: 4.16
[2]; 10 mM citrate, 7 days
  pH at 70° C.: 4.17
[2]; 10 mM citrate, 21 days
  pH at 70° C.: 4.11
[2]; 10 mM citrate, Initial (post-TS)
  pH at 70° C.: 4.16
[2]; 10 mM formate, 2 days
  pH at 70° C.: 4.18
[2]; 10 mM formate, 7 days
  pH at 70° C.: 4.16
[2]; 10 mM formate, 21 days
  pH at 70° C.: 4.13
[2]; 10 mM formate, Initial (post-TS)
  pH at 70° C.: 4.17
[2]; 10 mM tartrate, 2 days
  pH at 70° C.: 4.17
[2]; 10 mM tartrate, 7 days
  pH at 70° C.: 4.17
[2]; 10 mM tartrate, 21 days
  pH at 70° C.: 4.07
[2]; 10 mM tartrate, Initial (post-TS)
  pH at 70° C.: 4.15
[3]; Compound formulated with only water
  pH of the formulation: above 5
[3]; lactate buffered formulation, initial pH 4.5, autoclave 8 minutes at 121° C.
  pH after terminal sterilization cycle: about 4.2
